Data published in patent US10023534B2 (BRISTOL-MYERS SQUIBB COMPANY, priority 2014, dated 2018).
Like-named read-outs stand apart in the source and are kept apart here.

Legend:
[1] = target: human recombinant Btk (Homo sapiens (Human), UniProt Q06187); assay: Human Recombinant Btk Enzyme Assay; type: biochemical; details: for Potency Difference Btk: ratio of IC50 value for the Comparative Example to that for the corresponding Example: Comparative Example (stereoisomer) IC50 / Example IC50
Method: Human Recombinant Btk Enzyme Assay
To V-bottom 384-well plates were added test compounds, human recombinant Btk (1 nM, Invitrogen Corporation), fluoresceinated peptide (1.5 μM), ATP (20 μM), and assay buffer (20 mM HEPES pH 7.4, 10 mM MgCl2, 0.015% Brij 35 surfactant and 4 mM DTT in 1.6% DMSO), with a final volume of 30 μL. After incubating at room temperature for 60 min, the reaction was terminated by adding 45 μL of 35 mM EDTA to each sample. The reaction mixture was analyzed on the Caliper LABCHIP® 3000 (Caliper, Hopkinton, Mass.) by electrophoretic separation of the fluorescent substrate and phosphorylated product. […] Compounds were dissolved at 10 mM in DMSO and evaluated at eleven concentrations.

[2] = system: Ramos RA1 B cells; assay: Ramos FLIPR Assay (intracellular calcium flux, anti-human IgM stimulated); type: cell-based; details: for IC50: Ramos; for Potency Difference Ramos: ratio of IC50 value for the Comparative Example to that for the corresponding Example: Comparative Example (stereoisomer) IC50 / Example IC50
Method: Ramos FLIPR Assay […] Dye-loaded cells were pelleted (Beckmann GS-CKR, 1200 rpm, room temperature, 5 min) and resuspended at room temperature in RPMI minus phenol red with 50 mM HEPES and 10% FBS to a density of 1×10^6 cells/mL. 150 μL aliquots (150,000 cells/well) were plated into 96 well poly-D-lysine coated assay plates (BD 35 4640) and briefly centrifuged (Beckmann GS-CKR 800 rpm, 5 min, without brake). Next, 50 μL compound dilutions in 0.4% DMSO/RPMI minus phenol red+50 mM HEPES+10% FBS were added to the wells and the plate was incubated at room temperature in the dark for 1 hour. The assay plate was briefly centrifuged as above prior to measuring calcium levels. Using the […] (Molecular Devices), cells were stimulated by adding goat anti-human IgM (Invitrogen AHI0601) to 2.5 μg/mL. Changes in intracellular calcium concentrations were measured for 180 seconds and percent inhibition was determined relative to peak calcium levels seen in the presence of stimulation only. The Ramos assay measures the ability of a compound to move through the cell membrane into the cell interior. A lower IC50 value indicates a greater ability to move into the cell interior.

[3] = Table 3, ATP 20 μM, 60 min room temperature, read-out: Btk IC50 value
[4] = Table 4, read-out: Example Btk IC50
[5] = Homo sapiens, Table 4, read-out: Example Ramos IC50
[6] = Table 3, calcium flux, goat anti-human IgM 2.5 μg/mL, read-out: Ramos IC50 value

Sequence of human recombinant Btk (Q06187 whole entry): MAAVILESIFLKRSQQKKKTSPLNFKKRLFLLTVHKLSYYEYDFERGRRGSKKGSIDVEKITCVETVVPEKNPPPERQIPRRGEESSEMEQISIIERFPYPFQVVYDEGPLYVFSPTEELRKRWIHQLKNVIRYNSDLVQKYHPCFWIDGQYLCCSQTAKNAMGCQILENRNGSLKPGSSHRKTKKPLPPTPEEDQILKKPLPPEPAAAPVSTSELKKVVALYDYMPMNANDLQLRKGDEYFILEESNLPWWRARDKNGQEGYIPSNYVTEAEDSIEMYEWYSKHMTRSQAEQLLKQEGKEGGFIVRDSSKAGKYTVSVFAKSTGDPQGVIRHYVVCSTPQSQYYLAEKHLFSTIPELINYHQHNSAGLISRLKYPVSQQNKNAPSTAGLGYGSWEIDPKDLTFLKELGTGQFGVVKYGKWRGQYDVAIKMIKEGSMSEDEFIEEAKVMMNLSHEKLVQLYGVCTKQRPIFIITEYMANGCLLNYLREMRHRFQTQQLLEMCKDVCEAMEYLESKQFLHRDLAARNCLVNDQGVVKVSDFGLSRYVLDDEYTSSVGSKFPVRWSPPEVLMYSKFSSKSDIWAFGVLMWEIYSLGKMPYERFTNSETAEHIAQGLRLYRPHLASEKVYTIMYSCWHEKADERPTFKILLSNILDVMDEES

| SMILES | IC50 [1, 3] | IC50 ([2]; Homo sapiens, Table 3, calcium flux, goat anti-human IgM 2.5 μg/mL, read-out: Ramos IC50 value) | Potency Difference Btk: ratio of IC50 value for the Comparative Example to that for the corresponding Example [1] | IC50 [1, 4] | Potency Difference Ramos: ratio of IC50 value for the Comparative Example to that for the corresponding Example [2] | IC50 [2, 5] | IC50 [2, 6] | IC50 ([1]; Table 4, Comparative Example, read-out: Comparative Example Btk IC50) | IC50 ([2]; Homo sapiens, Table 4, Comparative Example, read-out: Comparative Example Ramos IC50) |
| --- | --- | --- | --- | --- | --- | --- | --- | --- | --- |
| C=CC(=O)N1CCc2c(cccc2-c2c(Cl)cc(C(N)=O)c3[nH]c4c(c23)CCCC4)C1 (racemic) [Example 32, 5-(2-acryloyl-1,2,3,4-tetrahydroisoquinolin-5-yl)-6-chloro-2,3,4,9-tetrahydro-1H-carbazole-8-carboxamide] | 0.6 nM | 46 nM | – | – | – | – | – | – | – |
| C=CC(=O)N1CCc2c(cccc2-c2c(F)cc(C(N)=O)c3[nH]c4cc(C(F)(F)F)ccc4c23)C1 (single isomer, unassigned) [Comparative Example 17, 4-(2-Acryloyl-1,2,3,4-tetrahydroisoquinolin-5-yl)-3-fluoro-7-(trifluoromethyl)-9H-carbazole-1-carboxamide] | – | – | – | – | – | – | – | 14 nM | > 300 nM |
| C=CC(=O)N1CCc2c(cccc2-c2c(F)cc(C(N)=O)c3[nH]c4cc(CCO)ccc4c23)C1 (racemic) [Example 25, 4-(2-acryloyl-1,2,3,4-tetrahydroisoquinolin-5-yl)-3-fluoro-7-(2-hydroxyethyl)-9H-carbazole-1-carboxamide] | 1.5 nM | – | – | – | – | – | 28 nM | – | – |

Next, values leading:

| IC50 [1, 3] | IC50 ([2]; Homo sapiens, Table 3, calcium flux, goat anti-human IgM 2.5 μg/mL, read-out: Ramos IC50 value) | Potency Difference Btk: ratio of IC50 value for the Comparative Example to that for the corresponding Example [1] | IC50 [1, 4] | Potency Difference Ramos: ratio of IC50 value for the Comparative Example to that for the corresponding Example [2] | IC50 [2, 5] | IC50 [2, 6] | IC50 ([1]; Table 4, Comparative Example, read-out: Comparative Example Btk IC50) | IC50 ([2]; Homo sapiens, Table 4, Comparative Example, read-out: Comparative Example Ramos IC50) | SMILES |
| --- | --- | --- | --- | --- | --- | --- | --- | --- | --- |
| 0.12 nM | – | 38 | 0.12 nM | >13 | 23 nM | 23 nM | – | – | C=CC(=O)N1CCc2c(cccc2-c2c(F)cc(C(N)=O)c3[nH]c4c(c23)CC(F)(F)CC4)C1 (single isomer, unassigned) [Example 6, 5-(2-Acryloyl-1,2,3,4-tetrahydroisoquinolin-5-yl)-3,3,6-trifluoro-2,3,4,9-tetrahydro-1H-carbazole-8-carboxamide] |
| 0.37 nM | – | 26 | 0.37 nM | 48 | 6.2 nM | 6.2 nM | – | – | C=CC(=O)N1CCCOc2c(-c3c(F)cc(C(N)=O)c4[nH]c5cc(C(F)(F)F)ccc5c34)cccc21 (single isomer, unassigned) [Example 12, 4-(5-Acryloyl-2,3,4,5-tetrahydrobenzo[b][1,4]oxazepin-9-yl)-3-fluoro-7-(trifluoromethyl)-9H-carbazole-1-carboxamide] |
| 0.18 nM | – | – | – | – | – | 25 nM | – | – | C=CC(=O)N1CCc2c(cccc2-c2c(F)cc(C(N)=O)c3[nH]c4c(c23)CC(F)(F)CC4)C1 (racemic) [Example 1, (RS)-5-(2-Acryloyl-1,2,3,4-tetrahydroisoquinolin-5-yl)-3,3,6-trifluoro-2,3,4,9-tetrahydro-1H-carbazole-8-carboxamide] |
| 0.067 nM | – | 60 | 0.067 nM | 30 | 2.4 nM | 2.4 nM | – | – | C=CC(=O)N1CCc2c(cccc2-c2c(F)cc(C(N)=O)c3[nH]c4ccccc4c23)C1 (single isomer, unassigned) [Example 5, 4-(2-Acryloyl-1,2,3,4-tetrahydroisoquinolin-5-yl)-3-fluoro-9H-carbazole-1-carboxamide] |
